“Also recorded” adds a separate entry of the source.

Assay [1] has as its system SK-BR-3 cells. Briefly: In vitro cytotoxicity, clonogenic assay, SK-BR-3 cells. Conditions: free maytansinoid, 72 hours exposure, read-out: IC50 towards SK-Br-3 cells. The format is cell-based, human. Here is the method: (§1) The KB (ATCC CCl-17) cell line is of human epithelial origin. The SK-BR-3 (ATCC HTB-30) cell line was established from a human breast adenocarcinoma. The human colon tumor cell lines COLO 205 (ATCC CCL-222) and HT-29 (ATCC HTB 38), the human melanoma cell line A-375 (ATCC CRL 1619), the human Burkitts lymphoma cell line Ramos (ATCC CRL-1596) and the human myeloid leukemia cell line HL-60 (ATCC CCL-240) were all obtained from ATCC, Maryland. Cell lines were grown in Dulbecco's modified Eagles Medium (DMEM, Biowhittaker, Walkersville, Md.) with L-glutamine supplemented with 10% fetal bovine serum (Hyclone, Logan, Utah) and 50 μg/mL gentamycin sulfate (Life Technologies, Rockville, Md.). Cells were maintained at 36-37.5° C. in a humidified atmosphere that contained 6% CO2.
The cytotoxicity study performed used a clonogenic assay. The test cell lines were plated into 6-well culture dishes at a constant number of 1000 cells per well. […] The cultures were then fixed and stained with 0.2% crystal violet in 10% formalin/PBS and colonies were counted. Plating efficiency of non-treated cells (medium alone) was determined by dividing the number of colonies counted by the number of cells plated. Surviving fraction of cells exposed to the drugs was determined by dividing the number of colonies in wells that were exposed to the drug by the number of colonies in the control wells.

Assay [2] relates to human melanoma cell line A-375. As to the kind of experiment: In vitro cytotoxicity, clonogenic assay, A-375 cells. The settings on record: for IC50: free maytansinoid, 72 hours exposure, clonogenic assay, read-out: IC50 towards A-375 cells; for fold less sensitive, antigen negative A-375 cells versus COLO 205 cells: antibody-maytansinoid conjugate. It counts as cell-based. The protocol:
as §1
The cytotoxicity study performed used a clonogenic assay. The test cell lines were plated into 6-well culture dishes at a constant number of 1000 cells per well. Cells were incubated with varying concentrations (0 to 3 nM) of the various maytansinoids (free or conjugated to antibodies) for 72 hours. The medium was then aspirated from the plates and replaced with fresh medium. Cultures were allowed to grow, and form colonies, for a total of 7-10 days after plating. The cultures were then fixed and stained with 0.2% crystal violet in 10% formalin/PBS and colonies were counted. Plating efficiency of non-treated cells (medium alone) was determined by dividing the number of colonies counted by the number of cells plated. Surviving fraction of cells exposed to the drugs was determined by dividing the number of colonies in wells that were exposed to the drug by the number of colonies in the control wells.

The test system of assay [3] is human acute lymphoblastic leukemia line CEM. Conditions: in vitro; cited from earlier work.
Assay [4] concerns Lewis lung carcinoma system. The settings on record: in vivo; cited from earlier work.
The test system of assay [5] is human nasopharyngeal carcinoma cells. The settings on record: cited from earlier work.
Assay [6] deals with L1210 mouse leukemia system. Conditions: in vivo; cited from earlier work.
The test system of assay [7] is human B-16 melanocarcinoma system. The settings on record: in vivo; cited from earlier work.
Assay [8] deals with L1210 cells. Conditions: L1210 cells treated in vivo; cited from earlier work.
Assay [9] concerns HT-29 human colon tumor xenografts. Briefly: In vivo efficacy against HT-29 xenografts. Further details: species or system mouse. Conditions: SCID mice, maytansinoid dose of 75 μg/kg, qd×5, intravenously. The protocol:
(§2) Five-week-old female SCID mice (20 animals) were inoculated subcutaneously in the right flank with HT-29 human colon carcinoma cells (1.5×10^6 cells/mouse) in 0.1 mL of serum-free medium. The tumors were grown for 11 days to an average size of 100 mm^3. The animals were then randomly divided into four groups (5 animals per group). The first group received huC242-DM1 conjugate (DM1 dose of 75 μg/kg, qd×5) administered intravenously. The second group received huC242-DM3 conjugate (DM3 dose of 75 μg/kg, qd×5) administered intravenously. The third group received huC242-DM4 conjugate (DM4 dose of 75 μg/kg, qd×5), while a fourth group of animals served as controls and received PBS using the same treatment schedule as in groups 1-3.
The sizes of the tumors were measured twice weekly and the tumor volumes were calculated with the formula: tumor volume=½(length×width×height). The weight of the animals was also measured twice per week. The tumors in the control group of mice grew to a size of nearly 1000 mm^3 in 35 days.

Assay [10] deals with COLO 205 human colon tumor xenografts. Briefly: In vivo efficacy against COLO 205 xenografts. Further details: species or system mouse. Conditions: SCID mice, maytansinoid dose of 75 μg/kg, qd×5, intravenously. The protocol: as §2, with “COLO 205” for “HT-29”
The sizes of the tumors were measured twice weekly and the tumor volumes were calculated with the formula: tumor volume=½(length×width×height). The weight of the animals was also measured twice per week. The tumors in the control group of mice grew to a size of nearly 900 mm^3 in 24 days.

Assay [11] concerns antigen positive COLO 205 cells. As to the kind of experiment: In vitro cytotoxicity of antibody-maytansinoid conjugates, clonogenic assay, COLO 205 cells. It counts as cell-based, human. Conditions: antibody-maytansinoid conjugate; read-out: IC50 towards antigen positive COLO 205 cells. The protocol: Conjugates of cell-binding agents with maytansinoid drugs of the invention can be evaluated for their ability to suppress proliferation of various unwanted cell lines in vitro (FIG. 6). For example, cell lines such as the human colon carcinoma line COLO 205, the human melanoma cell line A-375, the human myeloid leukemia cell line HL60 can be used for the assessment of cytotoxicity of these conjugates. Cells to be evaluated can be exposed to the compounds for 24 hours and the surviving fractions of cells measured in direct assays by known methods. IC50 values can then be calculated from the results of the assays.
The KB (ATCC CCl-17) cell line is of human epithelial origin. The SK-BR-3 (ATCC HTB-30) cell line was established from a human breast adenocarcinoma. […]
The cytotoxicity study performed used a clonogenic assay. […] The cultures were then fixed and stained with 0.2% crystal violet in 10% formalin/PBS and colonies were counted. Plating efficiency of non-treated cells (medium alone) was determined by dividing the number of colonies counted by the number of cells plated. Surviving fraction of cells exposed to the drugs was determined by dividing the number of colonies in wells that were exposed to the drug by the number of colonies in the control wells.

The subject of assay [12] is human HL-60 tumor xenografts. Briefly: In vivo efficacy of huMy9-6-DM4 against HL-60 xenografts in SCID mice (FIG. 11). More on the design: species or system mouse. The protocol: The efficacy of huMy9-6-DM4 in vivo was determined in SCID mice bearing human HL-60 tumor xenografts. HL-60 cells were injected subcutaneously and tumors were allowed to grow to an average size of 100 mm^3. Dosage is expressed as μg DM4 in the conjugate, which corresponds to an antibody dose of approximately 67 μg antibody per μg of DM4. […] The efficacy of huMy9-6-DM4 was also compared with that of huMy9-6-DM1. […] HuMy9-6-DM4 maintained the animals in complete remission (CR) for nearly sixty days, whereas animals treated with huMy9-6-DM1 relapsed after about 20 days in CR.

The IC50 is the midpoint of a concentration-inhibition curve. As to `COc1cc2cc(c1Cl)N(C)C(=O)C[C@H](OC(=O)[C@H](C)N(C)C(=O)CCC(C)SSC)[C@]1(C)O[C@H]1[C@H](C)[C@@H]1C[C@@](O)(NC(=O)O1)[C@H](OC)/C=C/C=C(\C)C2` (some centres unmarked) [4c, N^2′-deacetyl-N^2′-(4-methyldithio-1-oxopentyl)maytansine], the figures for the IC50 in [1] and in [2] were 0.007 nM and 0.015 nM, respectively.

As for `COc1cc2cc(c1Cl)N(C)C(=O)CC(OC(=O)[C@@H](C)N(C)C(=O)CCC(C)(C)SSC)C1(C)OC1C(C)C1CC(O)(NC(=O)O1)C(OC)/C=C/C=C(\C)C2` (some centres unmarked) [4e, N^2′-deacetyl-N^2′-(4-methyl-4-methyldithio-1-oxopentyl)maytansine], the results for the IC50 in assay [1] and in [2] were 0.009 nM and 0.032 nM, respectively.

In the case of `COc1cc2cc(c1Cl)N(C)C(=O)C[C@H](OC(=O)[C@H](C)N(C)C(C)=O)[C@]1(C)O[C@H]1[C@H](C)[C@@H]1C[C@@](O)(NC(=O)O1)[C@H](OC)/C=C/C=C(\C)C2` [maytansine, Maytansine], in [3], the “inhibitory concentration, as low as” value is ≥ 10^−7 μg/ml. For the same molecule, the inhibitory activity entry in assay [4], in assay [6] and in [7] was “significant inhibitory activity” each time. The “inhibition of in vitro growth” value in assay [5] is “active inhibitor”. Further, the “cells accumulating in mitosis” value in [8] is on record as 67%.

B1: huC242-DM3: huC242 antibody linked to DM3 (4a), on the average 3.2-3.5 DM3 molecules per antibody molecule (conjugate, chains of the INN, looked up)
VH: QVQLVQSGAEVKKPGETVKISCKASDYTFTYYGMNWVKQAPGQGLKWMGWIDTTTGEPTYAQKFQGRIAFSLETSASTAYLQIKSLKSEDTATYFCARRGPYNWYFDVWGQGTTVTVSS
VL: DIVMTQSPLSVPVTPGEPVSISCRSSKSLLHSNGNTYLYWFLQRPGQSPQLLIYRMSNLVSGVPDRFSGSGSGTAFTLRISRVEAEDVGVYYCLQHLEYPFTFGPGTKLELK
modifications: DM3 maytansinoid conjugate
notes: huC242 antibody linked to DM3 (4a), on the average 3.2-3.5 DM3 molecules per antibody molecule
Molecule B1 returned a tumor growth delay in assay [9] of 28 days. For the same molecule, the “fold less sensitive, antigen negative A-375 cells versus COLO 205 cells” value in [2] is listed as “about 500 fold”. Further, the “complete tumor regression lasting” value in assay [10] is listed as 45 days. In assay [11], the IC50 is 0.013 nM.

B2: huC242-DM4: huC242 antibody linked to DM4 (4b), on the average 3.2-3.5 DM4 molecules per antibody molecule (conjugate, chains of the INN, looked up)
VH: QVQLVQSGAEVKKPGETVKISCKASDYTFTYYGMNWVKQAPGQGLKWMGWIDTTTGEPTYAQKFQGRIAFSLETSASTAYLQIKSLKSEDTATYFCARRGPYNWYFDVWGQGTTVTVSS
VL: DIVMTQSPLSVPVTPGEPVSISCRSSKSLLHSNGNTYLYWFLQRPGQSPQLLIYRMSNLVSGVPDRFSGSGSGTAFTLRISRVEAEDVGVYYCLQHLEYPFTFGPGTKLELK
modifications: DM4 maytansinoid conjugate
notes: huC242 antibody linked to DM4 (4b), on the average 3.2-3.5 DM4 molecules per antibody molecule
As to B2, the tumor growth delay in assay [9] is on record as 36 days. Also, the “fold less sensitive, antigen negative A-375 cells versus COLO 205 cells” value in assay [2] was “about 500 fold”. For the same molecule, the “tumor response (regression, cures)” value in assay [10] was “cures of all the treated mice; also recorded: cures of all the treated animals”. Besides, in assay [11], the IC50 is 0.011 nM.

B3: huMy9-6-DM1: huMy9-6 conjugate of a previously described maytansinoid (DM1) (conjugate, chains of the INN, looked up)
VH: QVQLVESGGGVVQPGRSLRLSCAASGFTFSSFGMHWVRQAPGKGLEWVAYISSGSFTIYYADSVKGRFTISRDNSKNTLYLQMNSLRAEDTAVYYCARMRKGYAMDYWGQGTLVTVSS
VL: DVVMTQSPLSLPVTLGQPASISCRSSQIIIHSDGNTYLEWFQQRPGQSPRRLIYKVSNRFSGVPDRFSGSGSGTDFTLKISRVEAEDVGVYYCFQGSHVPHTFGQGTKVEIK
modifications: DM1 maytansinoid conjugate
For the molecule B3, the “time in complete remission (CR)” value in [12] (SCID mice, i.v. once a day for 5 days) is recorded as “about 20 days”. Besides, in assay [12] (subcutaneous HL-60 xenograft, equivalent dose, FIG. 11), the tumor growth delay entry was “about 48 days”.

Source of the values: patent publication US8841425B2, “Cytotoxic agents comprising new maytansinoids” (ImmunoGen, Inc., priority 2003, dated 2014).
